Laboratory results published in article PMC9061180 (RSC Advances, 2019).
Read-outs that look alike come from different tables or passages of the source.

What was measured:
Assay type in all cases: cell-based
[1] = test system: SMA (spontaneous murine astrocytoma); assay: cells; details: read-out: GI50 SMA
BE2-C (neuroblastoma) = assay: cells; details: read-out: GI50 BE2-C
[2] = test system: MIA (pancreatic carcinoma); assay: cells; details: read-out: GI50 MIA
[3] = test system: A2780 (ovarian carcinoma); assay: cells; details: read-out: GI50 A2780
A431 (skin carcinoma) = assay: cells; details: read-out: GI50 A431
HT29 (colon carcinoma) = assay: cells; details: read-out: GI50 HT29
H460 (lung carcinoma) = assay: cells; details: read-out: GI50 H460
U87 (glioblastoma) = assay: cells; details: read-out: GI50 U87
MCF10A (normal breast) = assay: cells; details: read-out: GI50 MCF10A
SJ-G2 (glioblastoma) = assay: cells; details: read-out: GI50 SJ-G2
[4] = test system: panel of eleven cancer cell lines and one normal cell line; assay: MTT cytotoxicity, panel of eleven cancer cell lines and one normal cell line; details: for activity in initial screen: 25 μM drug concentration; for levels of toxicity: against HT29, U87, A2780, MIA and SMA cell lines; for GI50: read-out: average GI50
[5] = test system: Du145 (prostate carcinoma); assay: cells; details: read-out: GI50 Du145
MCF-7 (breast carcinoma) = assay: cells; details: read-out: GI50 MCF-7
[6] = Table 5, normal breast cell line, 72 h exposure, MTT

| Compound | GI50 ([1]; Mus musculus, 72 h) [nM] | GI50 (BE2-C (neuroblastoma); Homo sapiens, BE(2)-C, 72 h) [nM] | GI50 ([2]; 72 h) [nM] | GI50 ([3]; Homo sapiens, A2780, 72 h) [nM] | GI50 (A431 (skin carcinoma); Homo sapiens, A-431, 72 h) [nM] | GI50 (HT29 (colon carcinoma); Homo sapiens, HT-29, 72 h) [nM] | GI50 (H460 (lung carcinoma); Homo sapiens, NCI-H460, 72 h) [nM] | GI50 (U87 (glioblastoma); 72 h) [nM] | GI50 (SJ-G2 (glioblastoma); SJ-G2, 72 h) [nM] | GI50 ([5]; Homo sapiens, DU-145, 72 h) [nM] | GI50 (MCF-7 (breast carcinoma); Homo sapiens, MCF7, 72 h) [nM] | GI50 (MCF10A (normal breast); Homo sapiens, MCF-10A, 72 h) [nM] | activity in initial screen [4] | levels of toxicity [4] | GI50 [4] [nM] | other results |
| --- | --- | --- | --- | --- | --- | --- | --- | --- | --- | --- | --- | --- | --- | --- | --- | --- |
| C#CC(=O)N(c1ccccc1)C(C(=O)NC1CCCCC1)c1ccccc1 (racemic) [Compound 12, (RS)-N-(2-(Cyclohexylamino)-2-oxo-1-phenylethyl)-N-phenylpropiolamide] | 250 | 500 ± 200 | 250 ± 20 | 230 ± 20 | 1000 ± 200 | 270 ± 10 | 3600 ± 600 | 190 ± 10 | 3000 ± 100 | 180 ± 10 | 1600 ± 290 | 2900 ± 100 | sufficiently promising activity | sub-micro molar | 1160 | – |
| O=C(NC1CCCCC1)C(c1ccccc1)N(C(=O)CC(F)(F)F)c1ccccc1 (racemic) [Compound 16g, (RS)-N-(2-(Cyclohexylamino)-2-oxo-1-phenylethyl)-3,3,3-trifluoro-N-phenylpropanamide] | 10000 ± 300 | 6900 ± 600 | 5900 ± 100 | 6500 ± 200 | 4300 ± 300 | 5900 ± 200 | 6000 ± 500 | 12000 ± 1000 | 11000 ± 1000 | 4800 ± 400 | 8000 ± 2000 | 5100 ± 500 | sufficiently promising activity | – | 7200 | – |
| C#CC(=O)N(c1ccccc1)C(C(=O)NCc1ccccc1)c1ccccc1 (racemic) [Compound 17a, (RS)-N-(2-(Benzylamino)-2-oxo-1-phenylethyl)-N-phenylpropiolamide] | 160 | 1400 ± 300 | 150 ± 9 | 100 ± 34 | 970 ± 200 | 170 ± 3 | 2000 ± 500 | 130 ± 17 | 2500 ± 100 | 1000 ± 10 | 1700 ± 200 | 1400 ± 400 | sufficiently promising activity | sub-micro molar | 970 | – |
| CC(=O)N(c1ccccc1)C(C(=O)NCc1ccccc1)c1ccccc1 (racemic) [Compound 17e, (RS)-N-Benzyl-2-phenyl-2-(N-phenylacetamido)acetamide] | > 50000 | 25000 ± 9000 | 8500 ± 900 | 16000 | 13000 ± 1000 | > 50000 | 21000 | > 50000 | 15000 ± 4000 | > 50000 | > 50000 | 15000 ± 1000 | sufficiently promising activity | – | – | – |
| C#CC(=O)N(c1ccccc1)C(C(=O)NCC(=O)OCC)c1ccccc1 (racemic) [Compound 18a, (RS)-Ethyl (2-phenyl-2-(N-phenylpropiolamido)acetyl)glycinate] | 480 ± 60 | 1800 ± 400 | 500 ± 100 | 330 ± 110 | 2100 ± 300 | 470 ± 90 | 3000 ± 400 | 270 ± 30 | 3000 ± 200 | 320 ± 40 | 2700 ± 130 | 6600 ± 1000 | sufficiently promising activity | sub-micro molar | 1800 | – |
| (RS)-N-(2-(Cyclohexylamino)-2-oxo-1-phenylethyl)-N-phenylbut-2-enamide [Compound 16d] | – | – | – | – | – | – | – | – | – | – | – | – | sufficiently promising activity | – | – | GI50 ([1]; Table 5, 72 h exposure, MTT): 14000 ± 2000 nM; GI50 (BE2-C (neuroblastoma); Table 5, 72 h exposure, MTT): 2600 ± 300 nM; GI50 ([2]; Table 5, 72 h exposure, MTT): 4500 ± 300 nM; GI50 ([3]; Table 5, 72 h exposure, MTT): 12000 nM; GI50 (A431 (skin carcinoma); Table 5, 72 h exposure, MTT): 2200 ± 100 nM; GI50 (HT29 (colon carcinoma); Table 5, 72 h exposure, MTT): 15000 ± 1000 nM; GI50 (H460 (lung carcinoma); Table 5, 72 h exposure, MTT): 13000 ± 300 nM; GI50 (U87 (glioblastoma); Table 5, 72 h exposure, MTT): 16000 nM; GI50 (MCF10A (normal breast); [6]): 7500 ± 1800 nM; GI50 (SJ-G2 (glioblastoma); Table 5, 72 h exposure, MTT): 13000 ± 1000 nM; GI50 ([4]; average over the cell lines of Table 5): 9400 nM; GI50 ([5]; Table 5, 72 h exposure, MTT): 8600 ± 2300 nM; GI50 (MCF-7 (breast carcinoma); Table 5, 72 h exposure, MTT): 4600 ± 1300 nM |
| N-(2-cyclohexylamino)-1-(4-methoxyphenyl)-2-oxoethyl-N-(3,5-dimethoxyphenyl)propiolamide [Compound 1, reference compound] | – | – | – | – | – | – | – | – | – | – | – | – | – | – | – | GI50 (BE2-C (neuroblastoma); Table 5, 72 h exposure, MTT): 30 ± 10 nM; GI50 ([2]; Table 5, 72 h exposure, MTT): 60 ± 30 nM; GI50 ([3]; Table 5, 72 h exposure, MTT): 580 ± 510 nM; GI50 (A431 (skin carcinoma); Table 5, 72 h exposure, MTT): 460 ± 150 nM; GI50 (HT29 (colon carcinoma); Table 5, 72 h exposure, MTT): 70 ± 10 nM; GI50 (H460 (lung carcinoma); Table 5, 72 h exposure, MTT): 1400 ± 600 nM; GI50 (U87 (glioblastoma); Table 5, 72 h exposure, MTT): 60 ± 20 nM; GI50 (MCF10A (normal breast); [6]): 290 ± 30 nM; GI50 (SJ-G2 (glioblastoma); Table 5, 72 h exposure, MTT): 1700 ± 260 nM; GI50 ([4]; across the cancer cell lines evaluated): ≤ 1000 nM; GI50 ([5]; Table 5, 72 h exposure, MTT): 110 ± 50 nM; GI50 (MCF-7 (breast carcinoma); Table 5, 72 h exposure, MTT): 1700 ± 170 nM |

More lines, main results first:

| GI50 ([1]; Mus musculus, 72 h) [nM] | GI50 (BE2-C (neuroblastoma); Homo sapiens, BE(2)-C, 72 h) [nM] | GI50 ([2]; 72 h) [nM] | GI50 ([3]; Homo sapiens, A2780, 72 h) [nM] | GI50 (A431 (skin carcinoma); Homo sapiens, A-431, 72 h) [nM] | GI50 (HT29 (colon carcinoma); Homo sapiens, HT-29, 72 h) [nM] | GI50 (H460 (lung carcinoma); Homo sapiens, NCI-H460, 72 h) [nM] | GI50 (U87 (glioblastoma); 72 h) [nM] | GI50 (SJ-G2 (glioblastoma); SJ-G2, 72 h) [nM] | GI50 ([5]; Homo sapiens, DU-145, 72 h) [nM] | GI50 (MCF-7 (breast carcinoma); Homo sapiens, MCF7, 72 h) [nM] | Compound | GI50 (MCF10A (normal breast); Homo sapiens, MCF-10A, 72 h) [nM] | activity in initial screen [4] | levels of toxicity [4] | GI50 [4] [nM] | other results |
| --- | --- | --- | --- | --- | --- | --- | --- | --- | --- | --- | --- | --- | --- | --- | --- | --- |
| – | 200 ± 6.7 | 200 ± 20 | 220 ± 17 | 590 ± 260 | 200 ± 20 | 2200 ± 200 | 220 | 760 ± 570 | 200 ± 69 | 1200 ± 33 | C#CC(=O)N(c1ccc(OC)cc1)C(C(=O)NC1CCCCC1)c1ccccc1 (racemic) [Compound 19, (RS)-N-(2-(Cyclohexylamino)-2-oxo-1-phenylethyl)-N-(4-methoxyphenyl)propiolamide] | 3300 ± 520 | – | – | – | – |
| – | 460 ± 38 | 460 ± 100 | 490 ± 95 | 1200 ± 410 | 470 ± 120 | 2300 ± 300 | 710 ± 64 | 1800 ± 88 | 660 ± 240 | 1800 ± 67 | C#CC(=O)N(c1ccccc1)C(C(=O)NC1CCCCC1)c1cccc(OC)c1OC (racemic) [Compound 20, (RS)-N-(2-(Cyclohexylamino)-1-(2,3-dimethoxyphenyl)-2-oxoethyl)-N-phenylpropiolamide] | 7600 ± 1800 | – | – | – | – |
| – | 270 ± 29 | 440 ± 140 | 540 ± 120 | 1000 ± 290 | 530 ± 41 | 2800 ± 1100 | 730 ± 130 | 1600 ± 180 | 610 ± 250 | 1500 ± 120 | C#CC(=O)N(c1ccccc1)C(C(=O)NC1CCCCC1)c1ccc(OC)c(OC)c1 (racemic) [Compound 21, (RS)-N-(2-(Cyclohexylamino)-1-(3,4-dimethoxyphenyl)-2-oxoethyl)-N-phenylpropiolamide] | 5100 ± 400 | – | – | – | – |
